Counter-ions that a name gives are not always drawn.
Tests used:
[1] = tested on: HeLa cells; settings: 0.2 μM DAPI, 60 min incubation
Procedure: Cells were fixed and stained with WGA-A488 (Invitrogen) as described above. […] Confocal images were captured and analyzed as described above.
For delivery studies, the DAPI concentration was five magnitudes lower measuring only 0.2 μM DAPI.

[2] = tested on: HeLa cells; test: XTT cell viability assay, HeLa; type: cell-based, human; settings: drug concentration, 24 h exposure, washed, further 24 h
[3] = tested on: HT-29 cells; test: XTT cell viability assay, HT-29; type: cell-based; settings: Homo sapiens, drug concentration, 24 h exposure, washed, further 24 h
[4] = tested on: PC-3 cells; test: XTT cell viability assay, PC-3; type: cell-based; settings: Homo sapiens, drug concentration, 24 h exposure, washed, further 24 h

## 4′,6-diamidino-2-phenylindole [DAPI]
[1]
  fluorescent signals from the nuclei: do not show any apparent fluorescent signals

## N.N.[Cl][Pt][Cl] [CDDP, cis-dichlorodiammine platinum(II)]
[2]
  IC50: 12 to 21 µM

## Nc1ccc2cc3ccc(N)cc3nc2c1 [proflavine, 3,6-diaminoacridine hydrochloride]
[3]
  IC50: 6.13 µM
[2]; Homo sapiens
  IC50: 1.8 to 2.9 µM
[4]
  IC50: 6.13 µM

Source: US11371025B2, “Non-covalent loading of plant picovirus particles” (CASE WESTERN RESERVE UNIVERSITY, priority 2013, dated 2022)
